Source: paper PMC7570859, “Simultaneous Quantification and Pharmacokinetic Study of Five Homologs of Dalbavancin in Rat Plasma Using UHPLC-MS/MS” (Molecules, 2020)
Where two headings read alike, the source gives them in different places.

Assays:
[1] = Pharmacokinetic study of dalbavancin components in rat plasma after IV dalbavancin hydrochloride (UHPLC-MS/MS); conditions: SD rats, IV 40 mg/kg dalbavancin hydrochloride, mean ± SD, n = 10; for AUC(0–t): 0 to 216 h; for AUC(0–t) / AUC(0–∞): UHPLC-MS/MS, non-compartmental; for MRT / half-life / Vd: both, Sprague-Dawley, rat, iv, 40 mg/kg; for MRT: MRT(0–t); for Vd: Vz (apparent volume of distribution)
Experimental: (§1) A total of 20 animal plasma samples were analyzed using the verified UHPLC-MS/MS detection method to evaluate 28-day multiple-dose pharmacokinetics of dalbavancin hydrochloride injected daily in rats.
(§2) Blood samples were collected and centrifuged (5417R centrifuge, Eppendorf AG, Hamburg, Germany) at 835× g for 10 min to separate the upper plasma. Then, 50 μL of plasma was mixed with 200 μL of methanol (containing dalbavancin B0-D8 isotope internal standard solutions at a concentration of 100 ng/mL), after which the solution was swirled with a multi-tube vortex mixer (Allsheng, Hangzhou, China) for 10 min and centrifuged at 12,000× g for 10 min. To obtain a cleaner supernatant, it was further centrifuged at 12,000× g for 5 min before sample injection.
(§3) The UHPLC system consisted of an ACQUITY UPLC I-Class (Waters Corp., Milford, MA, USA) and separation was achieved on an ACQUITY UPLC BEH C18 (2.1 mm × 100 mm, 1.7 μm, Waters Corp.). The mobile phase contained 0.1% formic acid (phase A) and acetonitrile (phase B), while the gradient elution procedure was as follows; 0.00–1.00 min: 20%B→30%B, 1.00–6.00 min: 30%B→33%B, 6.01–7.00 min: 95%B, 7.00–7.01 min: 95%B→20%B, 7.01–8.00 min: 20%B. The flow rate was 0.300 mL/min, and the sample injection volume was 5.0 μL. The autosampler was maintained at 6 °C.
(§4) The mass spectrometry system used was Xevo TQ triple quadrupole MS/MS (Waters Corp.), equipped with ESI source. After injecting 500 ng/mL of dalbavancin component combined solution and dalbavancin isotope internal standard solution into the mass spectrometer, the optimized parameters of the instrument were obtained as follows: capillary voltage, 3.00 kV; ion source temperature, 150 °C; desolvation gas temperature, 350 °C; collision gas flow rate, 0.15 mL/min; desolvation gas flow rate, 650 L/h. SRM was used for monitoring the positive ion mode and the total analysis run time was 8 min. Data was processed using UNIFI v1.9.3 software (Waters Corp.).
(§5) A total of 20 SD rats (weighing approximately 200 g each) were selected and divided into two equal groups, with each group containing 5 male and 5 female rats. Pharmacokinetic experiments were conducted for single-dose and multiple-dose administration of dalbavancin hydrochloride. The route of administration was IV, with an administration volume of 5 mL/kg and a dosage was 40 mg/kg. Blood sampling time points of the single-dose administration group were before administration (0 h) and 5 min, 3 h, 8 h, 24 h, 72 h, 144 h, and 216 h post administration. Blood was collected on day 28 for the multiple-dose administration group, and the time points of blood collection were the same as those of single-dose administration. The blood samples collected were immediately separated using centrifugation at 12,000× g for 10 min, and then, the plasma were transferred and stored at −16 °C to −24 °C until analysis.
(§6) Microsoft Office Excel 2007 and IBM SPSS Statistics 19.0 were used for data processing and statistical calculation using two-tailed Student’s t-test. Data Analysis System 3.1 software (DAS, Shanghai, China) was used to analyze and calculate AUC(0–∞), T1/2, Cmax and other parameters using the non-compartmental model.

[2] = rat, in vivo, iv, 40 mg/kg
Experimental: as §1, §2, §3, §4, §5, §6

[3] = in vivo; cited from earlier work
[4] = D28, multiple-dose group, daily for 28 days
[5] = T1/2, D28, multiple-dose group, daily for 28 days

Compound	AUC(0–t) ([1]; D1, single-dose group)	AUC(0–∞) ([1]; D1, single-dose group)	Cmax ([1]; D1, single-dose group)	Vz (apparent volume of distribution) ([1]; D1, single-dose group)	MRT ([1]; D1, single-dose group)	MRT [1, 4]	half-life ([1]; T1/2, D1, single-dose group)	Vd [1, 4]	half-life [1, 5]	MRT(0–t) ([2]; both, Sprague-Dawley)	T1/2 ([2]; both, Sprague-Dawley)	Vz (apparent volume of distribution) ([2]; both, Sprague-Dawley)	AUC(0–t) [2]	AUC(0–∞) [2]	Cmax [2]	plasma AUC(0–∞) relative to the other components combined [2]	Vd ([1]; D1, single-dose group)	adverse event: diarrhea [3]	adverse event: headache [3]	adverse event: nausea [3]
CN[C@H]1C(=O)N[C@@H]2Cc3ccc(cc3)Oc3cc4cc(c3O[C@@H]3O[C@H](C(=O)O)[C@@H](O)[C@H](O)[C@H]3NC(=O)CCCCCCCC(C)C)Oc3ccc(cc3Cl)[C@@H](O)[C@@H]3NC(=O)[C@H](NC(=O)[C@@H]4NC(=O)[C@@H](NC2=O)c2cc(cc(O)c2Cl)Oc2cc1ccc2O)c1ccc(O)c(c1)-c1c(O[C@H]2O[C@H](CO)[C@@H](O)[C@H](O)[C@@H]2O)cc(O)cc1[C@@H](C(=O)NCCCN(C)C)NC3=O [A0]	10.5 ± 2.6 µg·h/mL	11.8 ± 2.6 µg·h/mL	1800 ± 200 ng/mL	32.9 ± 5.7 L/kg	5.6 ± 0.3 h	60.7 ± 2.7 h	6.5 ± 0.6 h	196 ± 27.3 L/kg	–	–	–	–	–	–	–	–	–	–	–	–
CCCCCCCCCCC(=O)N[C@H]1[C@H](Oc2c3cc4cc2Oc2ccc(cc2Cl)[C@@H](O)[C@@H]2NC(=O)[C@H](NC(=O)[C@@H]4NC(=O)[C@H]4NC(=O)[C@@H](Cc5ccc(cc5)O3)NC(=O)[C@H](NC)c3ccc(O)c(c3)Oc3cc(O)c(Cl)c4c3)c3ccc(O)c(c3)-c3c(O[C@H]4O[C@H](CO)[C@@H](O)[C@H](O)[C@@H]4O)cc(O)cc3[C@@H](C(=O)NCCCN(C)C)NC2=O)O[C@H](C(=O)O)[C@@H](O)[C@@H]1O [A1]	155.4 ± 79.9 µg·h/mL	173.1 ± 65.6 µg·h/mL	14800 ± 6100 ng/mL	9.4 ± 3.3 L/kg	17 ± 3.8 h	53 ± 5.2 h	27.5 ± 11.4 h	10.1 ± 1.3 L/kg	110 ± 10.6 h	–	–	–	–	–	–	–	–	–	–	–
Dalbavancin	–	–	–	–	–	–	–	–	–	–	–	–	–	–	–	–	–	4.4%	4.7%	5.5%

Now from value to compound, other results behind:

AUC(0–t) ([1]; D1, single-dose group)	AUC(0–∞) ([1]; D1, single-dose group)	Cmax ([1]; D1, single-dose group)	Vz (apparent volume of distribution) ([1]; D1, single-dose group)	MRT ([1]; D1, single-dose group)	MRT [1, 4]	half-life ([1]; T1/2, D1, single-dose group)	Vd [1, 4]	half-life [1, 5]	MRT(0–t) ([2]; both, Sprague-Dawley)	T1/2 ([2]; both, Sprague-Dawley)	Vz (apparent volume of distribution) ([2]; both, Sprague-Dawley)	AUC(0–t) [2]	AUC(0–∞) [2]	Cmax [2]	plasma AUC(0–∞) relative to the other components combined [2]	Vd ([1]; D1, single-dose group)	Compound	adverse event: diarrhea [3]	adverse event: headache [3]	adverse event: nausea [3]
–	–	–	–	–	–	–	–	–	23.0 ± 0.9 h	74.6 ± 45.9 h	0.7 ± 0.5 L/kg	5776.5 ± 2593.2 µg·h/mL	6566.7 ± 1820.3 µg·h/mL	437300 ± 160300 ng/mL	approximately 5.8 times	–	CN[C@H]1C(=O)N[C@@H]2Cc3ccc(cc3)Oc3cc4cc(c3O[C@@H]3O[C@H](C(=O)O)[C@@H](O)[C@H](O)[C@H]3NC(=O)CCCCCCCCC(C)C)Oc3ccc(cc3Cl)[C@@H](O)[C@@H]3NC(=O)[C@H](NC(=O)[C@@H]4NC(=O)[C@@H](NC2=O)c2cc(cc(O)c2Cl)Oc2cc1ccc2O)c1ccc(O)c(c1)-c1c(O[C@H]2O[C@H](CO)[C@@H](O)[C@H](O)[C@@H]2O)cc(O)cc1[C@@H](C(=O)NCCCN(C)C)NC3=O [B0]	–	–	–
688.2 ± 272.2 µg·h/mL	756.2 ± 191.4 µg·h/mL	42900 ± 18900 ng/mL	–	32.3 ± 1.5 h	68.6 ± 8.2 h	29.1 ± 1.1 h	1.2 ± 0.4 L/kg	87 ± 27.5 h	–	–	–	–	–	–	–	2.3 ± 0.4 L/kg	CCCCCCCCCCCC(=O)N[C@H]1[C@H](Oc2c3cc4cc2Oc2ccc(cc2Cl)[C@@H](O)[C@@H]2NC(=O)[C@H](NC(=O)[C@@H]4NC(=O)[C@H]4NC(=O)[C@@H](Cc5ccc(cc5)O3)NC(=O)[C@H](NC)c3ccc(O)c(c3)Oc3cc(O)c(Cl)c4c3)c3ccc(O)c(c3)-c3c(O[C@H]4O[C@H](CO)[C@@H](O)[C@H](O)[C@@H]4O)cc(O)cc3[C@@H](C(=O)NCCCN(C)C)NC2=O)O[C@H](C(=O)O)[C@@H](O)[C@@H]1O [B1]	–	–	–
163.7 ± 79.5 µg·h/mL	187.2 ± 61.2 µg·h/mL	23400 ± 10400 ng/mL	–	16.2 ± 2.4 h	55.7 ± 4.7 h	87.3 ± 68.9 h	13.5 ± 3.4 L/kg	153 ± 43 h	–	–	–	–	–	–	–	28 ± 23 L/kg	CC(C)CCCCCCCCC(=O)N[C@H]1[C@H](Oc2c3cc4cc2Oc2ccc(cc2Cl)[C@@H](O)[C@@H]2NC(=O)[C@H](NC(=O)[C@@H]4NC(=O)[C@H]4NC(=O)[C@@H](Cc5ccc(cc5)O3)NC(=O)[C@H](N(C)C)c3ccc(O)c(c3)Oc3cc(O)c(Cl)c4c3)c3ccc(O)c(c3)-c3c(O[C@H]4O[C@H](CO)[C@@H](O)[C@H](O)[C@@H]4O)cc(O)cc3[C@@H](C(=O)NCCCN(C)C)NC2=O)O[C@H](C(=O)O)[C@@H](O)[C@@H]1O [B2]	–	–	–
